{"source": "patent US20110135755A1", "about": "“Combination therapies for treating neoplastic disease” (priority 2009, published 2011)", "key": {"[1]": {"assay": "Element concentrations in kidney samples of treated rats", "assay_type": "in vivo", "details": "rat kidney; cisplatin single iv 6.5 mg/kg; CV247 oral 3 ml/kg bd, fourteen days", "from_the_text": "Liver and kidney samples were subsequently examined to see if CV 247 protected the rats from the accumulation of platinum and platinum free radicals, and what kind of metal ion concentration changes occur after treatment."}, "[2]": {"system": "HCT 8 and T47D cell lines", "assay": "MTT, SRB and CVE assays with exposure of up to 10 days", "assay_type": "cell-based", "details": "18000 and 26000 cells/well", "from_the_text": "Graphs depicting the results obtained are shown in FIGS. 6 to 11 (it should be noted that some graphs have the x axis displaying cancer cell kill, whilst others display cancer cell viability)."}}, "note": "“Also recorded” adds a separate entry of the source."}
{"smiles": "N.N.[Cl][Pt][Cl]", "note": "[Cisplatin, cis-diamminedichloroplatinum]", "values": [{"measurement": "Pt", "setting": "[1]", "result": "3.048 ± 0.583"}, {"measurement": "effect on cancer cell kill / viability at cisplatin dose of 1 mg", "setting": "[2]; cisplatin 1 mg alone or with CV247", "result": "only a marginal long term benefit; also recorded: effect after 4 days was often reduced"}, {"measurement": "effect on cancer cell kill / viability", "setting": "[2]; high doses of cisplatin, CV247 alone", "result": "cytotoxic"}]}
